Test system: facial skin
Assay: Single application of glycerin U.S.P. and other strengths of aqueous glycerin solutions and gels (Example IV)
Type: in vivo, human

## OCC(O)CO [Glycerin U.S.P., glycerin]
Applied to a wetted facial surface
  feeling on application: better feeling (reduced stickiness)
Single application, one human subject
  shiny, moist, softening and dewy effects: results similar to those described in Example I
